Assay results as given in publication PMC3378510 (Nature immunology, 2012).

Key:
[1] = system: 1E6 CD8^+ T cell clone; experiment: Peptide mutagenesis scan of 1E6 T cells, TNF secretion; format: cell-based, human; details: compared with index peptide; peptide 1 μg/ml, 16 hr
[2] = system: 1E6 clone, in the context of HLA A*0201; details: compared with preproinsulin-derived peptide ALWGPDPAAA; cited from earlier work

Row | Substance | TNF response / activation, in words [1] | agonist potency, in words [2]
1 | R: A Position 1: ALWGPDPAAA with A1 mutated to R (RLWGPDPAAA) | larger responses compared with the index peptide | 
2 | Q: L Position 2: ALWGPDPAAA with L2 mutated to Q (AQWGPDPAAA) | larger responses compared with the index peptide | 
3 | RQFGPDFPTI |  | most potent peptide identified
